Source: article PMC9503459, “Antifungal Activity, Structural Stability, and Immunomodulatory Effects on Human Immune Cells of Defensin from the Lentil Lens culinaris” (Membranes, 2022)
No end group written: not given here.

Experiments:
[1] = test system: human red blood cells (hRBC); assay: Hemolytic assay; type: cell-based; conditions: 100 μM, 4% hRBC in PBS pH 7.2, 1.5 h, 37 °C, A405
Description: Hemolytic activity of Lc-def was studied using 96-well microplates. Fresh human red blood cells (hRBC) were washed three times with ice-cold PBS, pH 7.2. Serial two-fold dilutions of Lc-def and membrane-active peptide melittin from the venom of honeybees as positive control (final concentrations from 0.1 to 100 μM) were then added to hRBC in PBS (final concentration of 4% (v/v)). The suspension was incubated for 1.5 h at 37 °C. After, intact hRBC sedimentation aliquots of the supernatants containing released hemoglobin were transferred to 96-well microplates, and the absorbance at 405 nm was measured. hRBC in PBS or 0.1% Triton X-100 were employed as negative (control0) and positive (control100) controls, respectively. The percentage of hemolysis was calculated as: hemolysis(%) = ((Asample − Acontrol0)/(Acontrol100 − Acontrol0)) × 100%. Experiment was carried out twice in triplicate using the same blood.

CD4+ T-helper cells = assay: Cytokine response by multiplex xMAP, CD4+ T-helper cells; type: cell-based, human; conditions: 2 µM, 24 h
Description: Colorectal adenocarcinoma Caco-2 cell line (ATCC HTB-37) was cultured in complete DMEM/F12 (1:1) medium containing 10% fetal bovine serum (FBS, Gibco) and 1X antibiotic-antimycotic solution (1XAAS, Invitrogen, Waltham, MA, USA). The acute monocytic leukemia THP-1 line (ATCC TIB-202) was cultured in complete RPMI-1640 medium, containing 10% FBS, 1XAAS, and […]. THP-1 cells were differentiated into pro-inflammatory macrophages (Mφ1) with phorbol 12-myristate 13-acetate (Sigma-Aldrich) for 24 h and subsequently polarized with lipopolysaccharide from E. coli (Sigma-Aldrich) and rhIFN-γ (Sigma-Aldrich) for another 48 h according to previously reported protocol. All cells were cultured in a humidified CO2 incubator (5% CO2, 37 °C). Primary peripheral blood mononuclear cells (PBMCs) collected from a healthy donor were purchased from American Type Culture Collection (ATCC PCS-800-011). CD4^+ T-helper and CD8^+ T cytotoxic cells were isolated from PBMCs by magnetic separation with mouse anti-human CD4-PE (clone 13B8.2, Beckman Coulter Diagnostics, Pasadena, CA, USA) and CD8-PE (clone REA734, Miltenyi Biotec, Bergisch Gladbach, Germany), Anti-PE MicroBeads (Miltenyi Biotec), and LS Separation Columns (Miltenyi Biotec). Isolated CD4^+ and CD8^+ cells were expanded separately with Dynabeads™ Human T-Expander CD3/CD28 (Gibco, Waltham, MA, USA) in RPMI-1640 supplemented with 10% FBS, 1XAAS and 100 U/mL rh-IL-2 (Gibco). Regulatory CD4^+ FoxP3^+ T cells (Tregs) were isolated from PBMCs by magnetic separation with CD4^+CD25^+ Regulatory T Cell Isolation Kit, human (Miltenyi Biotec). Primary CD14^+ blood monocytes were isolated from PBMCs by adherence according to standard technique. Monocyte-derived mature dendritic cells (moDCs) were obtained from CD14^+ blood monocytes according to the previously reported protocol. Briefly, blood monocytes were incubated in complete RPMI-1640 medium, containing 10% FBS, 1XAAS, 800 U/mL rhGM-CSF (Sci-Store, Russia, Moscow) and 500 U/mL rhIL-4 (Sci-Store) for 3 days. Fresh complete RPMI-1640 medium with rhGM-CSF and rhIL-4 was added to the culture on day 3. On day 5, fresh complete RPMI-1640 containing 100 U/mL rhTNF-α (Sigma) as well as 800 U/mL rhGM-CSF and 500 U/mL rhIL-4 was added and the culture was incubated for another 4 days until full maturation.
Caco-2 cells were seeded into the wells of a 48-well plate, coated with 0.1% bovine collagen (Sigma-Aldrich) for 24 h, 3 weeks before the experiment with complete DMEM/F12 (1:1) medium renewal every 2–3 days. Monocytes, moDCs, CD4^+ T-helper and CD8^+ T cytotoxic cells, Mφ1, and Regulatory CD4^+ FoxP3^+ T cells were seeded into the wells of 48-well plates in the complete RPMI-1640 medium supplemented with 10% Human AB serum (HABS, Capricorn Scientific, Ebsdorfergrund, Germany) and 1XAAS 24 h prior to the experiment; medium in Caco-2-containing wells was also replaced with the same medium. After 24 h, half of the medium in each well was replaced by fresh complete RPMI-1640 medium with 10% HABS, supplemented with 4 µM of Lc-def for the sample wells or fresh medium alone for the control wells. Cell cultures were kept in CO2-incubator (5% CO2, 37 °C) for another 24 h. Culture supernatants were collected 24 h later and stored at −70 °C degrees less than one month prior to the analytes assessment. […]

[2] = test system: Gram-positive or Gram-negative bacteria; conditions: cited from earlier work

Lc-def: defensin from lentil Lens culinaris seeds (UniProt:B3F051), recombinant, overexpressed in Escherichia coli (KTCENLSDSFKGPCIPDGNCNKHCKEKEHLLSGRCRDDFRCWCTRNC; disulfide (positions not given here); ends not checked; also: disulfide bonds present, pairing not given here; UniProt B3F051 28-74, looked up)
hemolysis of erythrocytes [1]: did not cause hemolysis | EGF (CD4+ T-helper cells): <1.95↓ pg/ml | Eotaxin (CD4+ T-helper cells): <3.23↓ pg/ml | FGF-2 (CD4+ T-helper cells): 0 pg/mL | FLT-3L (CD4+ T-helper cells): <0.45↓ pg/ml | Fractalkine (CD4+ T-helper cells): <23.19↓ pg/ml | G-CSF (CD4+ T-helper cells): <2.57↓ pg/ml | GM-CSF (CD4+ T-helper cells): <1.36↓ pg/ml | GROa (CD4+ T-helper cells): <0.67↓ pg/ml | IFNa2 (CD4+ T-helper cells): <4.43↓ pg/ml | IFNg (CD4+ T-helper cells): <1.99↓ pg/ml | IL-1RA (CD4+ T-helper cells): <0.83↓ pg/ml | IL-1a (CD4+ T-helper cells): 8.24 pg/mL | IL-1b (CD4+ T-helper cells): <18.72↓ pg/ml | IL-2 (CD4+ T-helper cells): <0.31↓ pg/ml | IL-3 (CD4+ T-helper cells): <0.48↓ pg/ml | IL-4 (CD4+ T-helper cells): <0.31↓ pg/ml | IL-5 (CD4+ T-helper cells): 0.97 pg/mL | IL-6 (CD4+ T-helper cells): <0.30↓ pg/ml | IL-7 (CD4+ T-helper cells): <0.33↓ pg/ml | IL-8 (CD4+ T-helper cells): <0.49↓ pg/ml | IL-9 (CD4+ T-helper cells): <1.05↓ pg/ml | IL-10 (CD4+ T-helper cells): <0.68↓ pg/ml | IL-12 (p40) (CD4+ T-helper cells): <3.02↓ pg/ml | IL-12 (p70) (CD4+ T-helper cells): <1.48↓ pg/ml | IL-13 (CD4+ T-helper cells): <5.00↓ pg/ml | IL-15 (CD4+ T-helper cells): <1.45↓ pg/ml | IL-17A (CD4+ T-helper cells): <1.55↓ pg/ml | IL-17E/IL-25 (CD4+ T-helper cells): <20.59↓ pg/ml | IL-17F (CD4+ T-helper cells): <16.96↓ pg/ml | IL-18 (CD4+ T-helper cells): <0.35↓ pg/ml | IL-22 (CD4+ T-helper cells): <8.31↓ pg/ml | IL-27 (CD4+ T-helper cells): <8.55↓ pg/ml | IP-10 (CD4+ T-helper cells): <1.56↓ pg/ml | M-GSF (CD4+ T-helper cells): <23.75↓ pg/ml | MCP-1 (CD4+ T-helper cells): <1.52↓ pg/ml | MCP-3 (CD4+ T-helper cells): <3.95↓ pg/ml | MDC (CD4+ T-helper cells): <0.35↓ pg/ml | MIG (CD4+ T-helper cells): <3.43↓ pg/ml | MIP-1a (CD4+ T-helper cells): 7.47 pg/mL | MIP-1b (CD4+ T-helper cells): 3.99 pg/mL | PDGF-AA (CD4+ T-helper cells): <7.38↓ pg/ml | PDGF-AB/BB (CD4+ T-helper cells): <9.75↓ pg/ml | RANTES (CD4+ T-helper cells): 236.88 pg/mL | TGF-a (CD4+ T-helper cells): <0.66↓ pg/ml | TNFa (CD4+ T-helper cells): <3.91↓ pg/ml | TNFb (CD4+ T-helper cells): <0.73↓ pg/ml | VEGFa (CD4+ T-helper cells): <1.27↓ pg/ml | effects on cytokine production (CD4+ T-helper cells): No effects | sCD40L (CD4+ T-helper cells): <6.66↓ pg/ml | effect on growth of bacteria [2]: did not affect the growth
